The test relates to BDF1 mice, B16 melanoma ip, median survival T/C. In words: NCI In Vivo Anticancer Drug Screen. Data for tumor model B16 Melanoma (intraperitoneal) in B6D2F1 (BDF1) mice. The note with it: endpoint: median survival time, higher = longer survival. As to the method:
The antitumor activity of compounds was measured in mice bearing transplantable tumors. Survival or tumor size were measured and the results are expressed as the measurement made in the treated group (T) divided by the measurement made in the vehicle treated control group (C). The tumor model used in this assay is B16 Melanoma (intraperitoneal) in B6D2F1 (BDF1) mice

Setting [1] is: dose: 100.0 mg/kg/injection, schedule: Q01DX009 (ip), vehicle: saline with Tween-80.
The mark [2] stands for this setting: dose: 200.0 mg/kg/injection, schedule: Q01DX009 (ip), vehicle: saline with Tween-80.
Where [3] appears, read: dose: 50.0 mg/kg/injection, schedule: Q01DX009 (ip), vehicle: saline.
[4] abbreviates: dose: 50.0 mg/kg/injection, schedule: Q01DX009 (ip), vehicle: Klucel (hydroxypropylcellulose) (HPC).
Where [5] appears, read: dose: 100.0 mg/kg/injection, schedule: Q01DX009 (ip), vehicle: Klucel (hydroxypropylcellulose) (HPC).
The mark [6] stands for this setting: dose: 200.0 mg/kg/injection, schedule: Q01DX009 (ip), vehicle: Klucel (hydroxypropylcellulose) (HPC).
Where [7] appears, read: dose: 25.0 mg/kg/injection, schedule: Q01DX009 (ip), vehicle: Klucel (hydroxypropylcellulose) (HPC).
The mark [8] stands for this setting: dose: 25.0 mg/kg/injection, schedule: Q01DX009 (ip), vehicle: saline with Tween-80.
Where [9] appears, read: dose: 50.0 mg/kg/injection, schedule: Q01DX009 (ip), vehicle: saline with Tween-80.

Where “and” joins values, the source holds several entries; their conditions need not be identical. Equal values may be shown once. Toxic doses and inconclusive results are not listed.

We go through 13 molecules from PubChem BioAssay AID192 (DTP/NCI, 2004).

`N=c1c2ncn(Cc3cccc(C(F)(F)F)c3)c2ncn1O`: the T/C by setting is: (dose: 0.09 mg/kg/injection, schedule: Q01DX009 (ip), vehicle: Klucel (hydroxypropylcellulose) (HPC)) 93 % of control; (dose: 0.19 mg/kg/injection, schedule: Q01DX009 (ip), vehicle: Klucel (hydroxypropylcellulose) (HPC)) 90 % of control; (dose: 0.25 mg/kg/injection, schedule: Q04DX003 (ip), vehicle: Klucel (hydroxypropylcellulose) (HPC)) 97 % of control; (dose: 0.39 mg/kg/injection, schedule: Q01DX009 (ip), vehicle: Klucel (hydroxypropylcellulose) (HPC)) 93 % of control; (dose: 0.5 mg/kg/injection, schedule: Q04DX003 (ip), vehicle: Klucel (hydroxypropylcellulose) (HPC)) 95 % of control; (dose: 0.78 mg/kg/injection, schedule: Q01DX009 (ip), vehicle: Klucel (hydroxypropylcellulose) (HPC)) 91 % of control. The T/C (dose: 1.0 mg/kg/injection, schedule: Q04DX003 (ip), vehicle: Klucel (hydroxypropylcellulose) (HPC)) is 92 % of control; the T/C (dose: 1.4 mg/kg/injection, schedule: Q04DX003 (ip), vehicle: Klucel (hydroxypropylcellulose) (HPC)) is 107 % of control; the T/C (dose: 1.56 mg/kg/injection, schedule: Q01DX009 (ip), vehicle: Klucel (hydroxypropylcellulose) (HPC)) was 88 % of control; the T/C (dose: 2.2 mg/kg/injection, schedule: Q04DX003 (ip), vehicle: Klucel (hydroxypropylcellulose) (HPC)) was 107 % of control; the T/C (dose: 3.3 mg/kg/injection, schedule: Q04DX003 (ip), vehicle: Klucel (hydroxypropylcellulose) (HPC)) was 95 % of control.

For `CC(O)c1cccnc1` (stereo not drawn), the T/C (dose: 10.0 mg/kg/injection, schedule: Q01DX009 (ip), vehicle: saline) is 122 % of control; the T/C (dose: 20.0 mg/kg/injection, schedule: Q01DX009 (ip), vehicle: saline) was 116 % of control; the T/C (dose: 40.0 mg/kg/injection, schedule: Q01DX009 (ip), vehicle: saline) is 122 % of control.

On to `CCN(C(=O)Nc1ccc(Cl)cc1)c1ccccc1C`, for which the T/C under setting [1] is 97 % of control; the T/C under setting [2] is 102 % of control; the T/C (dose: 400.0 mg/kg/injection, schedule: Q01DX009 (ip), vehicle: saline with Tween-80) is 97 % of control.

For `Cn1ccc(=Nc2ccc(NC(=O)c3ccc(N=c4ccn(C)c5ccc([N+](=O)[O-])cc45)cc3)cc2)cc1`, the T/C (dose: 3.13 mg/kg/injection, schedule: Q01DX009 (ip), vehicle: other) was 101 % of control; the T/C (dose: 6.25 mg/kg/injection, schedule: Q01DX009 (ip), vehicle: other) was 101 % of control; the T/C (dose: 12.5 mg/kg/injection, schedule: Q01DX009 (ip), vehicle: other) was 100 % of control; the T/C (dose: 25.0 mg/kg/injection, schedule: Q01DX009 (ip), vehicle: other) is 97 % of control.

Turning to `CC[N+](CC)(CC)CC`, the T/C was 103 % of control (dose: 0.37 mg/kg/injection, schedule: Q01DX009 (ip), vehicle: saline with Tween-80); 100 % of control (dose: 0.75 mg/kg/injection, schedule: Q01DX009 (ip), vehicle: saline with Tween-80); 112 % of control (dose: 1.5 mg/kg/injection, schedule: Q01DX009 (ip), vehicle: saline with Tween-80); 120 % of control (dose: 3.0 mg/kg/injection, schedule: Q01DX009 (ip), vehicle: saline with Tween-80); 123 % of control (dose: 6.25 mg/kg/injection, schedule: Q01DX009 (ip), vehicle: saline); 112 % of control (dose: 11.0 mg/kg/injection, schedule: Q01DX009 (ip), vehicle: saline). The T/C by setting is: (dose: 12.5 mg/kg/injection, schedule: Q01DX009 (ip), vehicle: saline) 109 % of control; (dose: 16.5 mg/kg/injection, schedule: Q01DX009 (ip), vehicle: saline) 108 % of control; (dose: 25.0 mg/kg/injection, schedule: Q04DX003 (ip), vehicle: saline) 100 % of control; (dose: 37.5 mg/kg/injection, schedule: Q01DX009 (ip), vehicle: saline) 108 % of control; under setting [3], 90 % of control; (dose: 50.0 mg/kg/injection, schedule: Q04DX003 (ip), vehicle: saline) 100 % of control.

On to `O=C(C=C(C(F)(F)Cl)C(F)(F)Cl)c1cccs1`, for which the T/C (dose: 0.31 mg/kg/injection, schedule: Q01DX009 (ip), vehicle: saline) is 97 % of control; the T/C (dose: 0.62 mg/kg/injection, schedule: Q01DX009 (ip), vehicle: saline) is 92 % of control; the T/C (dose: 2.5 mg/kg/injection, schedule: Q04DX003 (ip), vehicle: saline) is 97 % of control; the T/C (dose: 5.0 mg/kg/injection, schedule: Q04DX003 (ip), vehicle: saline) was 105 % of control; the T/C (dose: 10.0 mg/kg/injection, schedule: Q04DX003 (ip), vehicle: saline) is 90 % of control.

Turning to `C[C@]12CC[C@@H]3c4ccc(O)cc4CC[C@H]3[C@@H]1C[C@@H](O)[C@@H]2O`, the T/C was 102 % of control under setting [4], 100 % of control under setting [5] and 90 % of control under setting [6].

`O=C(Nc1ccc(F)cc1)Nc1nccs1`: the T/C reads like this: under setting [7], 99 % of control; under setting [4], 104 % of control; under setting [5], 101 % of control; under setting [6], 104 % of control.

Consider `COC(C(=O)C(O)C(C)O)C1Cc2cc3cc(OC4CC(OC(C)=O)C(OC5CC(O)C(OC)C(C)O5)C(C)O4)cc(O)c3c(O)c2C(=O)C1OC1CC(OC2CC(OC3CC(C)(O)C(OC(=O)C(C)C)C(C)O3)C(O)C(C)O2)C(O)C(C)O1` (stereo not drawn), for which the T/C (dose: 0.25 mg/kg/injection, schedule: Q01DX009 (ip), vehicle: saline with Tween-80) is 158 % of control; the T/C (dose: 0.5 mg/kg/injection, schedule: Q01DX009 (ip), vehicle: saline) is 154 % of control and 170 % of control; the T/C (dose: 1.0 mg/kg/injection, schedule: Q01DX009 (ip), vehicle: saline) is 173 % of control and 183 % of control; the T/C (dose: 2.0 mg/kg/injection, schedule: Q01DX009 (ip), vehicle: saline) was 173 % of control and 178 % of control.

In the case of `NC(Cc1cc(I)c(O)c(I)c1)C(=O)O` (stereo not drawn), the T/C is, setting by setting: (dose: 25.0 mg/kg/injection, schedule: Q01DX009 (ip), vehicle: saline) 106 % of control; under setting [3], 112 % of control; (dose: 100.0 mg/kg/injection, schedule: Q01DX009 (ip), vehicle: carboxymethylcellulose (CMC)) 108 % of control; (dose: 100.0 mg/kg/injection, schedule: Q01DX009 (ip), vehicle: saline) 116 % of control; (dose: 200.0 mg/kg/injection, schedule: Q01DX009 (ip), vehicle: carboxymethylcellulose (CMC)) 115 % of control; (dose: 200.0 mg/kg/injection, schedule: Q01DX009 (ip), vehicle: saline) 110 % of control. Also, the T/C (dose: 400.0 mg/kg/injection, schedule: Q01DX009 (ip), vehicle: saline) is 100 % of control.

Turning to `CC(=O)Nc1ccc2c(ccc3ccccc32)c1`, the T/C by setting is: under setting [8], 90 % of control; under setting [9], 102 % of control; under setting [1], 89 % of control.

Take `Cc1ccc(NCC2(/N=C/c3ccccc3)OC(CO)C(O)C2O)cc1` (stereo not drawn): the T/C (dose: 6.25 mg/kg/injection, schedule: Q01DX009 (ip), vehicle: Klucel (hydroxypropylcellulose) (HPC)) is 98 % of control; the T/C (dose: 12.5 mg/kg/injection, schedule: Q01DX009 (ip), vehicle: Klucel (hydroxypropylcellulose) (HPC)) is 109 % of control; the T/C under setting [7] was 91 % of control and 95 % of control; the T/C under setting [4] was 90 % of control and 92 % of control; the T/C under setting [5] was 93 % of control and 114 % of control; the T/C (dose: 177.0 mg/kg/injection, schedule: Q01DX009 (ip), vehicle: Klucel (hydroxypropylcellulose) (HPC)) is 123 % of control. In addition, the T/C was 104 % of control under setting [6]; 123 % of control (dose: 266.0 mg/kg/injection, schedule: Q01DX009 (ip), vehicle: Klucel (hydroxypropylcellulose) (HPC)); 109 % of control (dose: 400.0 mg/kg/injection, schedule: Q01DX009 (ip), vehicle: Klucel (hydroxypropylcellulose) (HPC)).

On to `O=CN(SSN(C=O)C1CCCCC1)C1CCCCC1`, for which the T/C reads like this: (dose: 12.5 mg/kg/injection, schedule: Q01DX009 (ip), vehicle: saline with Tween-80) 110 % of control; under setting [8], 100 % of control; under setting [9], 98 % of control; under setting [1], 102 % of control; under setting [2], 88 % of control.
